Test results from PubChem BioAssay AID1845195 (Molecular Pharmacology Branch, DTP, NCI, 2023).
“And” between values parts separate entries of the source, which are not always exact repeats. Equal values may be shown once.

Test system: 156681-154-R-J1 tumor spheroid viability
Experiment: Anticancer human tumor 156681-154-R-J1 patient-derived melanoma cell line growth inhibition
Settings: spheroids with HUVEC and MSC; for viability, T/C: stronger effect = lower value
Outline: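 Complex tumor spheroids combined malignant cells with endothelial cells and mesenchymal stem cells. DNA-damaging drugs and DNA repair inhibitors were tested alone and in combination, at half-log dilutions down from clinical Cmax (top 10 microM if Cmax unknown), 0.25% DMSO final.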

[1] = curve of first compound, second compound 30 pM
[2] = curve of first compound, second compound 94.9 pM
[3] = curve of first compound, second compound 0.0003 µM
[4] = curve of first compound, second compound 0.000949 µM
[5] = curve of first compound, second compound 0.003 µM
[6] = second compound 30 pM, first compound 0.0316 µM
[7] = second compound 30 pM, first compound 0.1 µM
[8] = second compound 30 pM, first compound 0.316 µM
[9] = second compound 30 pM, first compound 1 µM
[10] = second compound 30 pM, first compound 3.16 µM
[11] = second compound 30 pM, first compound 10 µM
[12] = second compound 94.9 pM, first compound 0.0316 µM
[13] = second compound 94.9 pM, first compound 0.1 µM
[14] = second compound 94.9 pM, first compound 0.316 µM
[15] = second compound 94.9 pM, first compound 1 µM
[16] = second compound 94.9 pM, first compound 3.16 µM
[17] = second compound 94.9 pM, first compound 10 µM
[18] = second compound 0.0003 µM, first compound 0.0316 µM
[19] = second compound 0.0003 µM, first compound 0.1 µM
[20] = second compound 0.0003 µM, first compound 0.316 µM
[21] = second compound 0.0003 µM, first compound 1 µM
[22] = second compound 0.0003 µM, first compound 3.16 µM
[23] = second compound 0.0003 µM, first compound 10 µM
[24] = second compound 0.000949 µM, first compound 0.0316 µM
[25] = second compound 0.000949 µM, first compound 0.1 µM
[26] = second compound 0.000949 µM, first compound 0.316 µM
[27] = second compound 0.000949 µM, first compound 1 µM
[28] = second compound 0.000949 µM, first compound 3.16 µM
[29] = second compound 0.000949 µM, first compound 10 µM
[30] = second compound 0.003 µM, first compound 0.0316 µM
[31] = second compound 0.003 µM, first compound 0.1 µM
[32] = second compound 0.003 µM, first compound 0.316 µM
[33] = second compound 0.003 µM, first compound 1 µM
[34] = second compound 0.003 µM, first compound 3.16 µM
[35] = second compound 0.003 µM, first compound 10 µM
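Further: spheroids exposed to compounds for 7 days before readout.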
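Wherever viability, T/C is given: percent of vehicle control viability where 100% = DMSO-treated spheroids.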

| Structure (SMILES) | IC50 [1] [nM] | IC50 [2] [nM] | IC50 [3] [nM] | IC50 [4] [nM] | IC50 [5] [nM] | viability, T/C [6] [%] | viability, T/C [7] [%] | viability, T/C [8] [%] | viability, T/C [9] [%] | viability, T/C [10] [%] | viability, T/C [11] [%] | viability, T/C [12] [%] | viability, T/C [13] [%] | viability, T/C [14] [%] | viability, T/C [15] [%] | viability, T/C [16] [%] | viability, T/C [17] [%] | viability, T/C [18] [%] | viability, T/C [19] [%] | viability, T/C [20] [%] | also measured |
| --- | --- | --- | --- | --- | --- | --- | --- | --- | --- | --- | --- | --- | --- | --- | --- | --- | --- | --- | --- | --- | --- |
| Cc1cc(C)c(CNC(=O)c2cc(-c3ccc(CN4CCOCC4)cc3)cc3c2cnn3C2CCCC2)c(=O)[nH]1 + COc1cc2c(cc1O)CCNC21CSC2c3c(OC(C)=O)c(C)c4c(c3C(COC1=O)N1C(O)C3Cc5cc(C)c(OC)c(O)c5C(C21)N3C)OCO4 | > 10000 | > 10000 | > 10000 | < 31.6 | < 31.6 | 103 | 106 | 87.3 | 78.7 | 81.5 | 87.8 | 100 | 93.8 | 89 | 77.6 | 86.4 | 78.8 | 76.2 | 74.5 | 76.2 | viability, T/C [21]: 79.6%; viability, T/C [22]: 72.7%; viability, T/C [23]: 66.4%; viability, T/C [24]: 4.8%; viability, T/C [25]: 6.16%; viability, T/C [26]: 5.29%; viability, T/C [27]: 6.16%; viability, T/C [28]: 3.09%; viability, T/C [29]: 1.36%; viability, T/C [30]: 0.35%; viability, T/C [31]: 0.31%; viability, T/C [32]: 0.24%; viability, T/C [33]: 0.18%; viability, T/C [34]: 0.16%; viability, T/C [35]: 0.28% |
| Cc1sc2c(c1C)C(c1ccc(Cl)cc1)=NC(CC(=O)Nc1ccc(O)cc1)c1nnc(C)n1-2 (configuration not stated) | – | – | – | – | – | – | – | – | – | – | – | – | – | – | – | – | – | – | – | – | viability, T/C (compound 0.00949 µM): 77.1% and 103% and 87%; viability, T/C (compound 0.03 µM): 89.1% and 92% and 94.1%; viability, T/C (compound 0.0949 µM): 83.7% and 95.2% and 98%; viability, T/C (compound 0.3 µM): 70% and 80.3% and 96.3%; viability, T/C (compound 0.949 µM): 70.8% and 58.4% and 64.4%; viability, T/C (compound 3 µM): 38.2% and 42.2% and 73%; IC50 (curve of compound): 1920 nM and 1730 nM and > 3000 nM |
| COc1cc(C)[nH]c(=O)c1CN1CCc2c(Cl)cc(C(OC)C3COC3)c(Cl)c2C1=O (configuration not stated) + COc1cc2c(cc1O)CCNC21CSC2c3c(OC(C)=O)c(C)c4c(c3C(COC1=O)N1C(O)C3Cc5cc(C)c(OC)c(O)c5C(C21)N3C)OCO4 | > 10000 | > 10000 | > 10000 | < 31.6 | < 31.6 | 88.8 | 112 | 94.9 | 93.3 | 92.6 | 120 | 90.9 | 98.3 | 106 | 116 | 106 | 98.1 | 77.9 | 82.3 | 87.7 | viability, T/C [21]: 80.1%; viability, T/C [22]: 73.3%; viability, T/C [23]: 67.2%; viability, T/C [24]: 6.81%; viability, T/C [25]: 5.99%; viability, T/C [26]: 5.88%; viability, T/C [27]: 5.47%; viability, T/C [28]: 3.42%; viability, T/C [29]: 2.93%; viability, T/C [30]: 0.33%; viability, T/C [31]: 0.34%; viability, T/C [32]: 0.33%; viability, T/C [33]: 0.41%; viability, T/C [34]: 0.38%; viability, T/C [35]: 0.48% |
